Results on 26 compounds are retold here after patent US10183021B2, “sGC stimulators” (Ironwood Pharmaceuticals, Inc., priority 2013, dated 2019).

Where two headings read alike, the source gives them in different places.

The assay concerns the target soluble guanylate cyclase (sGC) (Homo sapiens (Human), UniProt Q02108+Q02153). The experiment in a line: sGC-HEK-cGMP assay, new protocol with DETA-NONOate, LC/MS detection (Example 2C). To be noted: read-out: Absolute EC50 (uM) - binned. Format: cell-based. How it is done: Human embryonic kidney cells (HEK293), endogenously expressing soluble guanylate cyclase (sGC), were used to evaluate the activity of test compounds. Compounds stimulating the sGC enzyme should cause an increase in the intracellular concentration of cGMP. HEK 293 cells were seeded in Dulbecco's Modification of Eagle's Medium supplemented with fetal bovine serum (10% final) and penicillin (100 U/mL)/streptomycin (100 μg/mL) in a 50 μL volume at a density of 1.5×10^4 cells/well in a poly-D-lysine coated 384 well flat bottom plate. Cells were incubated overnight at 37° C. in a humidified chamber with 5% CO2. Medium was aspirated and cells were washed with 1× Hank's Buffered Saline Salt Solution (50 μL). Cells were then incubated for 15 minutes at 37° C. with 50 μL of a 0.5 mM 3-isobutyl-1-methylxanthine (IBMX) solution. Test article and Diethylenetriamine NONOate (DETA-NONOate) solutions (x μM concentration for test article solution and 10 μM concentration for DETA-NONOate solution; wherein x is one of the following concentrations);
were then added to the assay mixture and the resulting mixture incubated at 37° C. for 20 minutes. After the 20 minute incubation, the assay mixture was aspirated and 10% acetic acid containing 150 ng/mL+3-cGMP (internal standard for LCMS) (50 μL) was added to the cells. The plate was incubated at 4° C. for 30 minutes in the acetic acid solution to stop the reaction and lyse the cells. The plates were then centrifuged at 1,000 g for 3 minutes at 4° C. and the supernatant transferred to a clean reaction plate for LCMS analysis.
cGMP concentrations were determined from each sample using the LCMS conditions below (Table 5) and calculated standard curve.
Data were normalized to a high control using the following equation: 100*(Sample−Low Control)/(High Control−Low Control), where the low control is the average of 16 samples treated with 1% DMSO, and the high control is the average of 16 samples treated with 30 μM of 1-329 Data were fit using a 4-parameter fit (log(agonist) vs. response—variable slope) using GraphPad Prism Software v.5. n=2 for all compounds. […] Compounds failing to elicit a minimum response of 50% are reported as >30 μM.

Sequence of soluble guanylate cyclase (sGC) (Q02153 whole entry): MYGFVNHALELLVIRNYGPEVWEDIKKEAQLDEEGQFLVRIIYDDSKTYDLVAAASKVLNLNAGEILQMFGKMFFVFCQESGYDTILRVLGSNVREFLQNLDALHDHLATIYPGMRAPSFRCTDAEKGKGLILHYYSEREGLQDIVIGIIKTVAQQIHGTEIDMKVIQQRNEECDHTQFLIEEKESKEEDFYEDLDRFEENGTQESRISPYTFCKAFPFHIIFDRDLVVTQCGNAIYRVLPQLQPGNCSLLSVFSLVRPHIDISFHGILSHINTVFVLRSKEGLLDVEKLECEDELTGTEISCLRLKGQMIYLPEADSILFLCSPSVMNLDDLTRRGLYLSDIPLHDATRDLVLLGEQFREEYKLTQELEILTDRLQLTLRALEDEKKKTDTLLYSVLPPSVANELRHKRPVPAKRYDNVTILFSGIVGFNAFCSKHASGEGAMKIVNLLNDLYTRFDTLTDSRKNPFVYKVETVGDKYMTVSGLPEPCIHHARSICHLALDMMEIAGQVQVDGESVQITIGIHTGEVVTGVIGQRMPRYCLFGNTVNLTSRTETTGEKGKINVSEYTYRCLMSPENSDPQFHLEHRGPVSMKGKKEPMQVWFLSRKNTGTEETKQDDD
Sequence of soluble guanylate cyclase (sGC) (Q02108 whole entry): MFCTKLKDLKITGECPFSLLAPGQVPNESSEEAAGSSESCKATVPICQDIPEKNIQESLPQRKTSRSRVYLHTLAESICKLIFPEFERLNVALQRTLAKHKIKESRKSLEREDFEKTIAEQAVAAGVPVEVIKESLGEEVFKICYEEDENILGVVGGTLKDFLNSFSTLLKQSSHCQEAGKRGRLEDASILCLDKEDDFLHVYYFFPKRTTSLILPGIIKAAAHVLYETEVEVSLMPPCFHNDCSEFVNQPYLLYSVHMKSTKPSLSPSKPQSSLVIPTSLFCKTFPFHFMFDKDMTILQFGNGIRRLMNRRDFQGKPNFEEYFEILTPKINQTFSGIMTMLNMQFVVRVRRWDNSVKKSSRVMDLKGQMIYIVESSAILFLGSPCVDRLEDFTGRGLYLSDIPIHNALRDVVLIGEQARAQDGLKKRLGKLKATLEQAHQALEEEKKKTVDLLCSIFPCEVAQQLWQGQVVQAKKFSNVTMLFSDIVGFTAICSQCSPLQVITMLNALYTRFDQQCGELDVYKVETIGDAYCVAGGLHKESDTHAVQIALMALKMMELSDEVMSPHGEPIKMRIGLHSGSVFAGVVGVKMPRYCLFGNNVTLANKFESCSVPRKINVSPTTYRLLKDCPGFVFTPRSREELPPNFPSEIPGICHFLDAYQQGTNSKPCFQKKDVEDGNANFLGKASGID

As for `CC1(C(=O)NC2CC2)C(=O)Nc2nc(-c3cc(-c4ccon4)n(Cc4ccccc4F)n3)nc(N)c21` (stereo not drawn) [Compound I-422], the half-maximal effective concentration (EC50) lay in the range of 0.101 to 1 µM.

Take `O=S(=O)(C1CCN(c2nc(-c3cc(-c4ccon4)n(Cc4ccccc4F)n3)ncc2F)CC1)N1CCOCC1` [Compound I-423]: the EC50 was under 0.1 µM.

Consider `O=C(O)[C@@H]1CN(c2nc(-c3cc(-c4ccon4)n(Cc4ccccc4F)n3)ncc2F)C[C@H]1C(F)(F)F` [Compound I-424], for which the EC50 was under 0.1 µM.

Turning to `O=C(NS(=O)(=O)C1CCN(c2nc(-c3cc(-c4ccon4)n(Cc4ccccc4F)n3)ncc2F)CC1)C1CC1` [Compound I-425], the EC50 was under 0.1 µM.

`CC(=O)NS(=O)(=O)C1CCN(c2nc(-c3cc(-c4ccon4)n(Cc4ccccc4F)n3)ncc2F)CC1` [Compound I-426]: the EC50 was under 0.1 µM.

For `NS(=O)(=O)C1CCN(c2nc(-c3cc(-c4ccon4)n(Cc4ccccc4F)n3)ncc2F)C1` (stereo not drawn) [Compound I-427], the EC50 is under 0.1 µM.

`OCCN(CCO)c1nc(-c2cc(-c3ccon3)n(Cc3ccccc3F)n2)ncc1F` [Compound I-428]: the EC50 is under 0.1 µM.

In the case of `O=C(NS(=O)(=O)C1CCN(c2nc(-c3cc(-c4ccon4)n(Cc4ccccc4F)n3)ncc2F)C1)C1CC1` (stereo not drawn) [Compound I-429], the EC50 is under 0.1 µM.

Turning to `OC[C@@H]1[C@H](O)CCN1c1nc(-c2cc(-c3ccon3)n(Cc3ccccc3F)n2)ncc1F` [Compound I-430], the EC50 is under 0.1 µM.

On to `CC(O)CN(CC(C)O)c1nc(-c2cc(-c3ccon3)n(Cc3ccccc3F)n2)ncc1F` (stereo not drawn) [Compound I-431], for which the 50% effective concentration (EC50) was under 0.1 µM.

Take `O=S(=O)(CCNc1nc(-c2cc(-c3ccon3)n(Cc3ccccc3F)n2)ncc1F)NO` [Compound I-432]: the EC50 was under 0.1 µM.

For `O=C1C=C(O)CN(c2nc(-c3cc(-c4ccon4)n(Cc4ccccc4F)n3)ncc2F)C1` [Compound I-433], the concentration for a half-maximal effect (EC50) was over 1 µM.

With `OCC1(O)CCN(c2nc(-c3cc(-c4ccon4)n(Cc4ccccc4F)n3)ncc2F)CC1` [Compound I-434], the EC50 is under 0.1 µM.

Take `OC[C@@H]1C[C@@H](O)CN1c1nc(-c2cc(-c3ccon3)n(Cc3ccccc3F)n2)ncc1F` [Compound I-435]: the EC50 is under 0.1 µM.

Regarding `O=S(=O)(CCNc1nc(-c2cc(-c3ccon3)n(Cc3ccccc3F)n2)ncc1F)NC[C@H](O)CO` [Compound I-437], the concentration for a half-maximal effect (EC50) fell in the range of 0.101 to 1 µM.

`NC(=O)C1(O)CCN(c2nc(-c3cc(-c4ccon4)n(Cc4ccccc4F)n3)ncc2F)CC1` [Compound I-438]: the concentration giving a half-maximal response (EC50) was under 0.1 µM.

Turning to `O=S(=O)(CCNc1nc(-c2cc(-c3ccon3)n(Cc3ccccc3F)n2)ncc1F)NCCO` [Compound I-439], the EC50 was under 0.1 µM.

On to `O=C(NC1CN(c2nc(-c3cc(-c4ccon4)n(Cc4ccccc4F)n3)ncc2F)C1)C1(O)CC1` [Compound I-440], for which the EC50 lay within 0.101 to 1 µM.

Regarding `O=c1[nH]nc(CNc2nc(-c3cc(-c4ccon4)n(Cc4ccccc4F)n3)ncc2F)[nH]1` [Compound I-441], the concentration for a half-maximal effect (EC50) lay in the range of 0.101 to 1 µM.

In the case of `O=c1nc[nH]n1-c1nc(-c2cc(-c3ccon3)n(Cc3ccccc3F)n2)ncc1F` [Compound I-442], the EC50 was over 1 µM.

Turning to `NC(=O)C(O)CNc1nc(-c2cc(-c3ccon3)n(Cc3ccccc3F)n2)ncc1F` (stereo not drawn) [Compound I-443], the concentration for a half-maximal effect (EC50) lay in the range of 0.101 to 1 µM.

Take `O=S(=O)(CC(F)(F)F)Nc1ccnc(-c2cc(-c3ccon3)n(Cc3ccccc3F)n2)n1` [Compound I-444]: the EC50 was 0.101 to 1 µM. Further, under “HEK293 cells, 10 μM DETA-NONOate, LC/MS detection, concentration eliciting 50% of high control response (30 μM I-329)”, the 50% effective concentration (EC50) lay in the range of 0.101 to 1 µM.

For `O=S(=O)(CCC(F)(F)F)Nc1nc(-c2cc(-c3ccon3)n(Cc3ccccc3F)n2)ncc1F` [Compound I-445], the EC50 lay in the range of 0.101 to 1 µM.

Regarding `COCCS(=O)(=O)Nc1nc(-c2cc(-c3ccon3)n(Cc3ccccc3F)n2)ncc1F` [Compound I-446], the 50% effective concentration (EC50) was over 1 µM.

In the case of `O=C(O)c1ccc(CNc2nc(-c3cc(-c4ccon4)n(Cc4ccccc4F)n3)ncc2F)s1` [Compound I-448], the 50% effective concentration (EC50) lay in the range of 0.101 to 1 µM.

As for `O=C(O)CCCCNc1nc(-c2cc(-c3ccon3)n(Cc3ccccc3F)n2)ncc1F` [Compound I-449], the EC50 was under 0.1 µM.

Broadly, the EC50 is the concentration that produces a half-maximal response.
